Assay results: patent publication EP4752152A1, “STEROID COMPOUND, AND PREPARATION METHOD THEREFOR AND USE THEREOF” (Cholesgen (Shanghai) Co.Ltd., priority 2023, dated 2025)
Read-outs that look alike come from different tables or passages of the source.

Key:
[1] = system: Fatty Acid Synthase (FASN) gene; assay: Inhibition of FASN gene expression (qPCR) in Huh-7 cells; type: cell-based, human; conditions: read-out: FASN IC50
Protocol: Huh-7 cells (purchased from ATCC) were cultured in DMEM medium (containing 10% fetal bovine serum LONSERA S711-001S) at 37°C in a 5% CO2 incubator. After 24 hours, the original medium was aspirated and replaced with DMEM starvation medium (containing 5% lipoprotein deficient serum (LPDS), 2 µM lovastatin, and 10 µM mevalonate). The control group was treated with dimethyl sulfoxide (DMSO), while the compound treatment groups were treated with different concentrations of compounds. The highest concentration of the compound was 3000 nM, with 3-fold dilutions, totaling 5 concentrations. The cells were cultured for 16 hours. Cell lysis was performed, followed by reverse transcription from cells to cDNA, and qPCR was performed to detect the expression of the SREBP target gene Fatty Acid Synthase (FASN) gene (FASN gene forward primer sequence: 5'-[…]-3', reverse primer sequence: 5'-[…]-3'). The IC50 was calculated. The test data for each test compound were analyzed using Prism software (with the DMSO-treated group as the reference to calculate the compound inhibition rate, fitted using the Prism log(inhibitor) vs. responseVariable slope (four-parameter) model, calculation formula: Y = Bottom + (Top - Bottom)/(1 + 10^((LogIC50 - X) × HillSlope))), to obtain the IC50 parameters of the compounds. Table 4: Inhibition results of FASN gene expression by compounds from some examples

SREBP pathway = assay: SREBP luciferase reporter gene system (SRE-luciferase assay); type: cell-based, human; conditions: Huh-7/SRE-luc cells, sterol-deficient medium, 0.01-10 µM
Method in brief: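 Readout was SRE-driven luciferase normalised to GFP fluorescence in lysates of stably transfected Huh-7/SRE-luc hepatoma cells. Compounds (0.01, 0.03, 0.1, 0.3, 1.0, 3.0, 10 µM; DMSO control) were applied for 16 h in sterol-depleted medium with 2 µM lovastatin and 10 µM mevalonate; IC50 from variable-slope fit.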

[2] = Homo sapiens, Huh-7, 16 h, Huh-7 cells, starvation medium, 16 hours, qPCR, class symbols

Row | Structure (SMILES) | IC50 [1, 2] [µM] | IC50 (SREBP pathway; Homo sapiens, Huh-7, 16 h) [µM] | IC50 ([1]; Huh-7 cells, starvation medium, 16 hours, qPCR, class symbols) [µM] | IC50 (SREBP pathway; 16 hours) [µM] | IC50 ([1]; Homo sapiens, Huh-7, 16 h) [µM]
1 | COc1ncccc1C(O)CCC[C@@H](C)[C@H]1CC[C@H]2[C@H]3[C@H](CC[C@]12C)[C@@]1(C)CC[C@H](O)[C@H](O)[C@@H]1CC3(F)F (single isomer, unassigned) [Compound 192, (1R,3aS,3bS,5aR,6R,7S,9aR,9bS,11aR)-4,4-difluoro-1-[(2R,6S)-6-hydroxy-6-(^2-methoxypyridin-3-yl)hexan-2-yl]-9a,11a-dimethylhexadecahydro-1H-cyclopenta[1,2-a]phenanthrene-6,7-diol or (1R,3aS,3bS,5aR,6R,7S,9aR,9bS,11aR)-4,4-difluoro-1-[(2R,6R)-6-hydroxy-6-(2-methoxypyridin-3-yl)hexan-2-yl]-9a,11a-dimethylhexadecahydro-1H-cyclopenta[1,2-a]phenanthrene-6,7-diol] | 0.2 to 0.5 | 0.053 | – | – | –
2 | COc1ncccc1C(O)CCC[C@@H](C)[C@H]1CC[C@H]2[C@H]3[C@H](CC[C@]12C)[C@@]1(C)CC[C@H](O)[C@H](O)[C@@H]1CC3(F)F (single isomer, unassigned) [Compound 193, (1R,3aS,3bS,5aR,6R,7S,9aR,9bS,11aR)-4,4-difluoro-1-[(2R,6R)-6-hydroxy-6-(2-methoxypyridin-3-yl)hexan-2-yl]-9a,11a-dimethylhexadecahydro-1H-cyclopenta[1,2-a]phenanthrene-6,7-diol or (1R,3aS,3bS,5aR,6R,7S,9aR,9bS,11aR)-4,4-difluoro-1-[(2R,6S)-6-hydroxy-6-(2-methoxypyridin-3-yl)hexan-2-yl]-9a,11a-dimethylhexadecahydro-1H-cyclopenta[1,2-a]phenanthrene-6,7-diol] | – | – | 0.2 to 0.5 | 0.072 | –
3 | C[C@H](CCCC(O)c1cccc2c1OC(F)(F)O2)[C@H]1CC[C@H]2[C@H]3[C@H](CC[C@]12C)[C@@]1(C)CC[C@H](O)[C@H](O)[C@@H]1CC3(F)F (single isomer, unassigned) [Compound 194, (1R,3aS,3bS,5aR,6R,7S,9aR,9bS,11aR)-1-[(2R,6S)-6-(2,2-difluorobenzo[d][1,3]dioxol-4-yl)-6-hydroxyhexan-2-yl]-4,4-difluoro-9a,11a-dimethylhexadecahydro-1H-cyclopenta[1,2-a]phenanthrene-6,7-diol or (1R,3aS,3bS,5aR,6R,7S,9aR,9bS,11aR)-1-[(2R,6R)-6-(2,2-difluorobenzo[d][1,3]dioxol-4-yl)-6-hydroxyhexan-2-yl]-4,4-difluoro-9a,11a-dimethylhexadecahydro-1H-cyclopenta[1,2-a]phenanthrene-6,7-diol] | 0.2 to 0.5 | 0.102 | – | – | –
4 | COc1cc(F)c([C@@H](O)CCC[C@@H](C)[C@H]2CC[C@H]3[C@H]4[C@H](CC[C@]23C)[C@@]2(C)CC[C@H](O)[C@H](O)[C@@H]2CC4(F)F)c(F)c1Br (single isomer, unassigned) [Compound 198] | < 0.2 | 0.058 | – | – | –
5 | COc1cc(F)c([C@H](O)CCC[C@@H](C)[C@H]2CC[C@H]3[C@H]4[C@H](CC[C@]23C)[C@@]2(C)CC[C@H](O)[C@H](O)[C@@H]2CC4(F)F)c(F)c1Br (single isomer, unassigned) [Compound 199] | 0.2 to 0.5 | 0.152 | – | – | –
6 | COc1cc(F)cc(F)c1C(O)CCC[C@@H](C)[C@H]1CC[C@H]2[C@H]3[C@H](CC[C@]12C)[C@@]1(C)CC[C@H](O)[C@H](O)[C@@H]1CC3(F)F (single isomer, unassigned) [Compound 200, (1R,3aS,3bS,5aR,6R,7S,9aR,9bS,11aR)-1-[(2R,6S)-6-(4,6-difluoro-2-methoxyphenyl)-6-hydroxyhexan-2-yl]-4,4-difluoro-9a,11a-dimethylhexadecahydro-1H-cyclopenta[1,2-a]phenanthrene-6,7-diol or (1R,3aS,3bS,5aR,6R,7S,9aR,9bS,11aR)-1-[(2R,6R)-6-(4,6-difluoro-2-methoxyphenyl)-6-hydroxyhexan-2-yl]-4,4-difluoro-9a, 11a-dimethylhexadecahydro-1H-cyclopenta[1,2-a]phenanthrene-6,7-diol] | < 0.2 | 0.053 | – | – | –
7 | COc1cccc(F)c1C(CCC[C@@H](C)[C@H]1CC[C@H]2[C@H]3[C@H](CC[C@]12C)[C@@]1(C)CC[C@H](O)[C@H](O)[C@@H]1CC3(F)F)=NO (single isomer, unassigned) [Compound 210, [(1E,5R)-5-[(1R,3aS,3bS,5aR,6R,7S,9aR,9bS,11aR)-4,4-difluoro-6,7-dihydroxy-9a,11a-dimethylhexadecahydro-1H-cyclopenta[1,2-a]phenanthren-1-yl]-1-(2-fluoro-6-methoxyphenyl)hexylidene]hydroxylamine or [(1Z,5R)-5-[(1R,3aS,3bS,5aR,6R,7S,9aS,9bS,11aR)-4,4-difluoro-6,7-dihydroxy-9a,9b,11a-trimethylhexadecahydro-1H-cyclopenta[1,2-a]phenanthren-1-yl]-1-(2-fluoro-6-methoxyphenyl)hexylidene]hydroxylamine] | – | – | – | 0.017 | < 0.2
8 | C[C@H](CCCC(O)c1ccc(F)nc1F)[C@H]1CC[C@H]2[C@H]3[C@H](CC[C@]12C)[C@@]1(C)CC[C@H](O)[C@H](O)[C@@H]1CC3(F)F (single isomer, unassigned) [Compound 227, (1R,3aS,3bS,5aR,6R,7S,9aR,9bS,11aR)-1-[(2R,6R)-6-(2,6-difluoropyridin-3-yl)-6-hydroxyhexan-2-yl]-4,4-difluoro-9a,11a-dimethylhexadecahydro-1H-cyclopenta[1,2-a]phenanthrene-6,7-diol or (1R,3aS,3bS,5aR,6R,7S,9aR,9bS,11aR)-1-[(2R,6S)-6-(2,6-difluoropyridin-3-yl)-6-hydroxyhexan-2-yl]-4,4-difluoro-9a,11a-dimethylhexadecahydro-1H-cyclopenta[1,2-a]phenanthrene-6,7-diol] | 0.2 to 0.5 | – | – | 0.014 | –
9 | COc1ccnc(F)c1[C@H](O)CCC[C@@H](C)[C@H]1CC[C@H]2[C@H]3[C@H](CC[C@]12C)[C@@]1(C)CC[C@H](O)[C@H](O)[C@@H]1CC3(F)F (single isomer, unassigned) [Compound 230] | < 0.2 | 0.062 | – | – | –
10 | C[C@H](CCC[C@@H](O)c1c(F)ccnc1F)[C@H]1CC[C@H]2[C@H]3[C@H](CC[C@]12C)[C@@]1(C)CC[C@H](O)[C@H](O)[C@@H]1CC3(F)F (single isomer, unassigned) [Compound 232] | 0.2 to 0.5 | 0.151 | – | – | –
11 | C[C@H](CCC[C@H](O)c1c(F)ccnc1F)[C@H]1CC[C@H]2[C@H]3[C@H](CC[C@]12C)[C@@]1(C)CC[C@H](O)[C@H](O)[C@@H]1CC3(F)F (single isomer, unassigned) [Compound 233] | 0.2 to 0.5 | 0.106 | – | – | –
12 | COc1ccc(C(O)CCC[C@@H](C)[C@H]2CC[C@H]3[C@H]4[C@H](CC[C@]23C)[C@@]2(C)CC[C@H](O)[C@H](O)[C@@H]2CC4(F)F)c(F)n1 (single isomer, unassigned) [Compound 241, (1R,3aS,3bS,5aR,6R,7S,9aR,9bS,11aR)-4,4-difluoro-1-[(2R,6R)-6-(2-fluoro-6-methoxypyridin-3-yl)-6-hydroxyhexan-2-yl]-9a,11a-dimethylhexadecahydro-1H-cyclopenta[1,2-a]phenanthrene-6,7-diol or (1R,3aS,3bS,5aR,6R,7S,9aR,9bS,11aR)-4,4-difluoro-1-[(2R,6S)-6-(2-fluoro-6-methoxypyridin-3-yl)-6-hydroxyhexan-2-yl]-9a,11a-dimethylhexadecahydro-1H-cyclopenta[1,2-a]phenanthrene-6,7-diol] | < 0.2 | 0.14 | – | – | –
13 | C[C@H](CCCC(O)c1cccc2cnn(C)c12)[C@H]1CC[C@H]2[C@H]3[C@H](CC[C@]12C)[C@@]1(C)CC[C@H](O)[C@H](O)[C@@H]1CC3(F)F (single isomer, unassigned) [Compound 244, (1R,3aS,3bS,5aR,6R,7S,9aR,9bS,11aR)-4,4-difluoro-1-[(2R,6R)-6-hydroxy-6-(1-methylindazol-7-yl)hexan-2-yl]-9a,11a-dimethylhexadecahydro-1H-cyclopenta[1,2-a]phenanthrene-6,7-diol or (1R,3aS,3bS,5aR,6R,7S,9aR,9bS,11aR)-4,4-difluoro-1-[(2R,6S)-6-hydroxy-6-(1-methylindazol-7-yl)hexan-2-yl]-9a,11a-dimethylhexadecahydro-1H-cyclopenta[1,2-a]phenanthrene-6,7-diol] | < 0.2 | – | – | 0.06 | –
14 | COc1nc(F)cc(F)c1[C@@H](O)CCC[C@@H](C)[C@H]1CC[C@H]2[C@H]3[C@H](CC[C@]12C)[C@@]1(C)CC[C@H](O)[C@H](O)[C@@H]1CC3(F)F (single isomer, unassigned) [Compound 255] | 0.2 to 0.5 | 0.107 | – | – | –
15 | COc1nc(F)ccc1[C@H](O)CCC[C@@H](C)[C@H]1CC[C@H]2[C@H]3[C@H](CC[C@]12C)[C@@]1(C)CC[C@H](O)C(=O)[C@@H]1CC3(F)F (single isomer, unassigned) [Compound 260] | < 0.2 | 0.03 | – | – | –
